From US20030008807A1, “Novel signaling pathway for the production of inflammatory pain and neuropathy” (The Regents of the University of California, priority 2001, published 2003)
Entries after “also recorded” stand apart in the source; their conditions may differ.

Tests used:
[1] = tested on: mechanical nociceptive threshold; test: PGE2-induced hyperalgesia, Randall-Selitto paw-withdrawal test (Example 1); assay type: in vivo, rat; conditions: intradermal, inhibitor 1 μg plus PGE2 100 ng, male rats
Protocol: (§1) The nociceptive flexion reflex (Randall-Selitto paw-withdrawal test) was quantified with a Basile Analge-symeter (Stoelting, Chicago, Ill.), which applies a linearly increasing mechanical force to the dorsum of the rat's hindpaw. The mechanical nociceptive threshold was defined as the force in grams at which the rat withdrew its paw. On the day of the test, animals were brought to the laboratory and allowed to remain in the cage for 10-15 min. They were allowed to crawl into individual cylindrical Perspex blocks and were lightly restrained there by closing both ends of the cylinder. […] Three readings were taken at 5 min intervals, and their mean was considered the baseline threshold. After each drug administration, mechanical paw-withdrawal thresholds were determined again as the mean of three readings taken 20, 25, and 30 min after injection. The result was expressed as the percentage decrease in nociceptive threshold [(paw-withdrawal threshold after the drug-basal paw withdrawal threshold)/basal withdrawal threshold×100].
(§2) Stock solutions (1 μg/μl) of BIM (in 10% dimethylsulfoxide) and εV1-2 and WI PTI DE (in 0.9% saline) were stored at […]. […] Paw-withdrawal thresholds were measured again 10, 15, and 20 min after injecting the test agent. […] The effect of each dose a test agent was calculated as the percentage change from baseline.

[2] = tested on: mechanical nociceptive threshold; test: ψεRACK (PKCε activator)-induced hyperalgesia, Randall-Selitto paw-withdrawal test; assay type: in vivo, rat; conditions: intradermal, inhibitor 1 μg plus ψεRACK 1 μg, male rats
Protocol: as §1, §2

[3] = tested on: Taxol-induced hyperalgesia; test: Taxol-induced painful peripheral neuropathy, Randall-Selitto paw-withdrawal test; assay type: in vivo, rat; conditions: male and female rats, administered at site of nociceptive testing on paw
Excerpt: (§3) The role of Ras-MEK-ERK 1/2 cascade in painful peripheral neuropathy has been evaluated in three rodent models of common clinical conditions in which patients experience painful peripheral neuropathy. The three models are as follows: 1) Taxol® (a major cancer chemotherapy agent)-induced painful peripheral neuropathy (Dina, O. A., et al., (2001) Role of protein kinase C-epsilon and protein kinase A in a model of paclitaxel-induced painful peripheral neuropathy in the rat. Neuroscience 108:507-515); 2) vincristine (another cancer chemotherapy agent)-induced painful peripheral neuropathy (Aley, K. O., et al., (1996) Vincristine hyperalgesia in the rat: a possible modelfor painful vincristine neuropathy in humans. Neuroscience 73:259-265; Tanner, K. D., et al., (1998) Nociceptor hyper-responsiveness during vincristine-induced painful peripheral neuropathy in the rat. J. Neuroscience 18:6480-6491; Tanner, K. D., et al., (1998) Microtubule disorientation and axonal swelling in unmyelinated sensory axons during vincristine-induced painful neuropathy in rat. J. Comp. Neurol., 395:481-492; and, Tanner, K. D., et al., (2002) Altered temporal patterning of afferent activity in a rat model of vincristine-induced peripheral neuropathy (Submitted -Neuroscience).); and, 3) alcohol-induced painful peripheral neuropathy (Dina, O. A., et al., (2000) Key role for the epsilon isoform of protein kinase C in painful alcoholic neuropathy in the rat. J. Neurosci. 20:8614-8619). In all three models, inhibition of MEK by a MEK inhibitor, PD98509, produced either a moderate (Taxol and vincristine) or profound (alcohol) reversal of the painful peripheral neuropathy. In the third model, alcohol-induced painful peripheral neuropathy, a second inhibitor of the Ras-MEK-ERK 1/2 cascade, which was MEK inhibitor U0126, was also employed.
The pain threshold in normal male and female rats was approximately 110 grams, using the Randall-Selitto paw-withdrawal test (plotted as absolute change in nociceptive threshold). Following administration of Taxol, the threshold fell to approximately 70 grams.

[4] = tested on: vincristine-induced hyperalgesia; test: Vincristine-induced painful peripheral neuropathy, Randall-Selitto paw-withdrawal test; assay type: in vivo, rat; conditions: male and female rats, administered at site of nociceptive testing on paw
Excerpt: as §3
The pain threshold in normal male and female rats was approximately 110 grams, using the Randall-Selitto paw-withdrawal test (plotted as absolute change in nociceptive threshold). Following administration of vincristine, the threshold fell to approximately 65 grams.

[5] = tested on: alcohol-induced hyperalgesia; test: Alcohol-induced painful peripheral neuropathy, Randall-Selitto paw-withdrawal test; assay type: in vivo, rat
Excerpt: as §3
The pain threshold in normal rats was approximately 110 grams, using the Randall-Selitto paw-withdrawal threshold test (plotted as percentage change in nociceptive threshold). Following chronic consumption of a diet in which alcohol replaced calories, but not other nutrients, in the normal diet, the threshold fell to approximately 70 grams. […] See FIG. 13A, which illustrates results from female rats and FIG. 13B, which illustrates results from male rats.

[6] = tested on: mechanical nociceptive threshold; test: Epinephrine-induced mechanical hyperalgesia, Randall-Selitto paw-withdrawal test (Example 1)
Excerpt: (§4) The nociceptive flexion reflex (Randall-Selitto paw-withdrawal test) was quantified with a Basile Analge-symeter (Stoelting, Chicago, Ill.), which applies a linearly increasing mechanical force to the dorsum of the rat's hindpaw. The mechanical nociceptive threshold was defined as the force in grams at which the rat withdrew its paw. […] They were allowed to crawl into individual cylindrical Perspex blocks and were lightly restrained there by closing both ends of the cylinder. […] The rats were allowed to acclimatize to the restrainer for 5-10 min, after which the hindpaws were exposed to the test stimulus. Three readings were taken at 5 min intervals, and their mean was considered the baseline threshold. After each drug administration, mechanical paw-withdrawal thresholds were determined again as the mean of three readings taken 20, 25, and 30 min after injection.
Inhibitors were diluted with distilled water before intra-dermal injections into the paw using a 10 μl microsyringe (Hamilton, Reno, Nev.). Injections of peptides (1 μg/2.5 μl) were always preceded by injection of distilled water (2.5 μl) to produce hypo-osmotic shock. […] Paw-withdrawal thresholds were measured again 10, 15, and 20 min after injecting the test agent. The mean of the paw-withdrawal thresholds obtained at these three times was then taken as the mechanical nociceptive threshold at the dose of the test agent used. The effect of each dose a test agent was calculated as the percentage change from baseline.

[7] = tested on: mechanical nociceptive threshold; test: Epinephrine-induced hyperalgesia in gonad-intact and gonadectomized male and female rats (Example 2); conditions: inhibitor 1 μg, epinephrine 100 ng intradermal
Protocol: The nociceptive flexion reflex was quantified using the Randall-Selitto paw pressure device (Analgesymeter, Stoetling, Chicago, Ill., USA), which applies a linearly increasing mechanical force to the dorsum of the rat's hind paw. The mechanical nociceptive threshold was defined as the force in grams at which the rat withdrew its paw. […] Baseline paw-withdrawal threshold was defined as the mean of six readings before test agents were injected. […] Each group of rats was treated with only one agonist and/or antagonist injected peripherally by the intradermal route. […] All behavioural testing was done between 10.00 and 16.00 h. […] The protein kinase inhibitor was separated from the distilled water by drawing up a small air bubble (<1 μL) into the syringe after drawing up the protein kinase inhibitor but before drawing up the distilled water.
A stock solution of PGE2 (4 mg/mL) was made by dissolving it in 10% ethanol in normal saline; further dilution to 100 ng was made by addition of saline. Final concentration of ethanol was <10%. […] Stock solutions (1 μg/μL) of inhibitors were stored at −20° C. […] Inhibitors were injected at a concentration of 1 μg/2.5 μL.

[8] = tested on: ERK1/2; test: Epinephrine-stimulated ERK1/2 phosphorylation in cultured rat DRG neurons (Western analysis); assay type: cell-based
Protocol: Trypsin was inactivated by adding 100 μg/ml soybean trypsin inhibitor and 2.5 mg/ml MgSO4. The cells were centrifuged at 300×g for 5 min and resuspended culture media containing minimal essential medium (MEM) supplemented with 10% heat-inactivated fetal calf serum, 1×MEM vitamins, and 1000 U/ml each of penicillin and streptomycin. The culture was enriched for neurons by preplating on 100 mm culture dishes pretreated with 0.1 mg/ml poly-DL-ornithine in 15 mM sodium borate buffer. After culture for 15-20 hr, the loosely attached neuronal cells were collected and plated for 3 hr on six-well plates coated with 0.1 mg/ml poly-DL-ornithine and 1 mg/ml laminin.
After drug treatment, cells from neuron-enriched DRG cultures were collected and centrifuged at 300×g for 5 min at 4° C. […] Blots were incubated with anti-phospho-p42/44 MAP kinase antibody (diluted 1:500 in blocking buffer) overnight at 4° C. Blots were rinsed three times in PBS-T and incubated in blocking buffer containing HRP-conjugated goat anti-rabbit IgG (diluted 1:1000; Boehringer Mannheim, Indianapolis, Ind.) for 1 hr at 27° C. Immunoreactive bands were visualized by enhanced chemiluminescence (Amersham Pharmacia Biotech, Piscataway, N.J.). The membranes were then stripped of antibodies by incubation in 200 mM NaOH for 20 min at 27° C. […] After three washes in PBS-T, blots were incubated with HRP-conjugated goat anti-rabbit IgG (diluted 1:1000; Boehringer Mannheim) for 1 hr at 27° C., and immunoreactive bands were visualized by enhanced chemiluminescence and autoradiography. […] Data were normalized by dividing values obtained for phospho-ERK1 and phospho-ERK2 immunoreactivity by the value obtained for total ERK1 immunoreactivity for each sample.

[9] = tested on: mechanical nociceptive threshold; test: Prostaglandin E2-induced hyperalgesia in male and female rats (Example 2); assay type: in vivo, rat; conditions: both sexes, gonad-intact; inhibitor 1 μg, PGE2 100 ng intradermal
Excerpt: The nociceptive flexion reflex was quantified using the Randall-Selitto paw pressure device (Analgesymeter, Stoetling, Chicago, Ill., USA), which applies a linearly increasing mechanical force to the dorsum of the rat's hind paw. The mechanical nociceptive threshold was defined as the force in grams at which the rat withdrew its paw. The protocols for this procedure have been previously described (Taiwo et al., (1989) The contribution of training to sensitivity in the nociceptive paw-withdrawal test. Brain Res., 487:148-151). Rats were familiarized in the testing procedure, at 5-min intervals for a period of 1 h per day for 3 days in the week preceding the experiment, to decrease variance in nociceptive thresholds (Taiwo et al., (1989), supra). Baseline paw-withdrawal threshold was defined as the mean of six readings before test agents were injected. Each paw was treated as an independent measure (Taiwo et al., (1989), supra) and each experiment was performed on a separate group of rats. Each group of rats was treated with only one agonist and/or antagonist injected peripherally by the intradermal route. It has been shown in previous studies that these agents, which are injected using the protocol described, exert a peripheral rather than central action (Khasar et al., (1995), supra; and, Khasar et al., (1999b), supra). The dose-response relationship for the effect of epinephrine was determined over a dose range of 1 ng-1 μg. All behavioural testing was done between 10.00 and 16.00 h. The blocking agents, with and without epinephrine (Khasar et al., (1999b), supra) or prostaglandin E2 (PGE2) (Aley et al., (1998), supra; Aley & Levine, (1999), supra; and, Aley et al., (2000) Chronic hypersensitivity for inflammatory nociceptor sensitization mediated by the epsilon isozyme of protein kinase C. J. Neurosci., 20:4680-4685), were injected as described previously (Khasar et al., (1995), supra; and, Khasar et al., (1999b), supra). […]

[10] = tested on: mechanical nociceptive threshold; test: Active MEK-induced hyperalgesia, Randall-Selitto paw-withdrawal test; conditions: intradermal, inhibitor 1 μg plus active MEK 0.5 U, male rats
Excerpt: as §4
Inhibitors were diluted with distilled water before intra-dermal injections into the paw using a 10 μl microsyringe (Hamilton, Reno, Nev.). Injections of peptides (1 μg/2.5 μl) were always preceded by injection of distilled water (2.5 μl) to produce hypo-osmotic shock. […] Paw-withdrawal thresholds were measured again 10, 15, and 20 min after injecting the test agent. […] The effect of each dose a test agent was calculated as the percentage change from baseline.

[11] = male and female rats, administered at site of nociceptive testing on paw

Molecule | effect on hyperalgesia induced by PGE2 [1] | effect on hyperalgesia induced by ψεRACK [2] | effect on Taxol-induced hyperalgesia [3] | effect on Taxol-induced hyperalgesia ([3]; listed as PD98509) | effect on vincristine-induced hyperalgesia [4] | effect on vincristine-induced hyperalgesia ([4]; listed as PD98509) | effect on vincristine-induced hyperalgesia ([4]; listed as PD980598) | effect on alcohol-induced hyperalgesia ([5]; female rats (FIG. 13A)) | effect on alcohol-induced hyperalgesia [5, 11] | effect on alcohol-induced hyperalgesia ([5]; male and female rats, administered at site of nociceptive testing on paw, listed as PD98509) | effect on alcohol-induced hyperalgesia ([5]; male rats (FIG. 13B)) | effect on epinephrine-induced mechanical hyperalgesia ([6]; intradermal, inhibitor 1 μg plus epinephrine 100 ng, male rats) | effect on epinephrine-induced hyperalgesia ([7]; intact female rats) | effect on epinephrine-induced ERK phosphorylation [8] | effect on epinephrine-induced mechanical hyperalgesia ([6]; rat, in vivo) | effect on prostaglandin E2-induced hyperalgesia [9] | effect on hyperalgesia induced by active MEK [10] | effect on epinephrine-induced hyperalgesia ([7]; gonadectomized female rats) | effect on epinephrine-induced hyperalgesia ([7]; intact male rats)
COc1cccc(-c2cc(=O)c3ccccc3o2)c1N [PD98059] | had no effect | had no effect | two-thirds reduction; also recorded: significantly reversed | moderate | more than two-thirds reduction; also recorded: reversed | moderate | significantly reversed | almost completely reversed | almost complete reversal | profound | almost completely reversed | inhibited | attenuated |  |  |  |  |  | 
N#CC(=C(/N)Sc1ccccc1N)/C(C#N)=C(\N)Sc1ccccc1N [U0126] | had no effect | had no effect |  |  |  |  |  | almost completely reversed | almost complete reversal |  | almost completely reversed |  | attenuated | inhibited | inhibited |  |  |  | 
WIPTIDE |  |  |  |  |  |  |  |  |  |  |  |  | neither inhibited |  |  | significantly blocked; also recorded: inhibited to a similar degree | did not reduce | inhibition | antagonized
